According to patent publication US8901304B1, “Benzo[D]imidazole derivatives of piperidine and piperazine” (King Fahd University of Petroleum and Minerals, priority 2013, dated 2014):

Row | melting point | SMILES
1 | > 260 °C | O=c1[nH]c2ccc(C3CCN(Cc4ccc(-c5ccccc5)cc4)CC3)cc2[nH]1 [5a, 5-(1-(biphenyl-4-ylmethyl)piperidin-4-yl)-1H-benzo[d]imidazol-2(3H)-one]
2 | 236 to 237 °C | O=c1[nH]c2ccc(C3CCN(Cc4cncc(-c5ccccc5)c4)CC3)cc2[nH]1 [5c, 5-(1-((5-phenylpyridin-3-yl)methyl)piperidin-4-yl)-1H-benzo[d]imidazol-2(3H)-one]
3 | 249 to 250 °C | O=c1[nH]c2ccc(C3CCN(Cc4cncc(C5=CCCC5)c4)CC3)cc2[nH]1 [5f, 5-(1-((5-cyclopentenylpyridin-3-yl)methyl)piperidin-4-yl)-1H-benzo[d]imidazol-2(3H)-one]
4 | > 260 °C | O=c1[nH]c2ccc(N3CCN(Cc4ccc(-c5ccccc5)cc4)CC3)cc2[nH]1 [6a, 5-(4-(biphenyl-4-ylmethyl)piperazin-1-yl)-1H-benzo[d]imidazol-2(3H)-one]
5 | > 260 °C | O=c1[nH]c2ccc(N3CCN(CC4(F)C=CC(c5ccccc5)=CC4)CC3)cc2[nH]1 (centres unmarked) [6b, 5-(4-((4-Fluorobiphenyl-4-yl)methyl)piperazin-1-yl)-1H-benzo[d]imidazol-2(3H)-one]
6 | 246 to 247 °C | O=c1[nH]c2ccc(N3CCN(Cc4cncc(-c5ccc(F)cc5)c4)CC3)cc2[nH]1 [6d, 5-(4-((5-(4-fluorophenyl)pyridin-3-yl)methyl)piperazin-1-yl)-1H-benzo[d]imidazol-2(3H)-one]
7 | 244 to 245 °C | O=c1[nH]c2ccc(N3CCN(Cc4cccc(C5=CCCC5)c4)CC3)cc2[nH]1 [6e, 5-(4-(3-cyclopentenylbenzyl)piperazin-1-yl)-1H-benzo[d]imidazol-2(3H)-one]
8 | 255 to 256 °C | O=c1[nH]c2ccc(N3CCN(Cc4cncc(C5=CCCC5)c4)CC3)cc2[nH]1 [6f, 5-(4-((5-cyclopentenylpyridin-3-yl)methyl)piperazin-1-yl)-1H-benzo[d]imidazol-2(3H)-one]
